Source: the NIST ThermoML archive (doi:10.1021/je300775u)
Values joined by “and” are separate entries in the source; they are usually repeats but may differ in a detail not shown here. Equal entries are not always repeated.

Assays:
[1] = xn = mol fraction of the nth substance listed; conditions: 101 kPa, Liquid; for speed of sound: Pulse-echo method; for mass density: Vibrating tube method
[2] = 101.3 kPa, Liquid; for speed of sound: Pulse-echo method; for mass density: Vibrating tube method

CCCCCCC [heptane] + ClC(Cl)(Cl)Br
[1], x2 = 0
Conditions	mass density [kg/m3]	speed of sound [m/s]
293.15 K	683.84	1152.6
298.15 K	679.6	1131
303.15 K	675.33	1109.6
308.15 K	671.04	1088.2
313.15 K	666.71	1067.1

CCCCCCC [heptane]
[2]
Conditions	mass density [kg/m3]	speed of sound
293.15 K	683.84	1152.6 m/s and 1152.2 m/s
298.15 K	679.6	1131 m/s and 1130.9 m/s
303.15 K	675.33	1109.6 m/s and 1109.1 m/s
308.15 K	671.04	1088.2 m/s and 1088.1 m/s
313.15 K	666.71	1067.1 m/s and 1066.9 m/s

ClCBr [bromochloromethane]
[2]
Conditions	mass density [kg/m3]	speed of sound [m/s]
293.15 K	1933.23	1001.2
298.15 K	1921.71	986.1
303.15 K	1910.15	971
308.15 K	1898.51	955.9
313.15 K	1886.82	940.8

CCCCCCC [heptane] + BrCBr
[1], x2 = 0
Conditions	mass density [kg/m3]	speed of sound [m/s]
293.15 K	683.84	1152.2
298.15 K	679.6	1130.9
303.15 K	675.33	1109.1
308.15 K	671.04	1088.1
313.15 K	666.71	1066.9

ClC(Cl)(Cl)Br [bromotrichloromethane]
[2]
Conditions	mass density [kg/m3]	speed of sound [m/s]
293.15 K	2013.06	917.1
298.15 K	2002.14	903.6
303.15 K	1991.2	890.2
308.15 K	1980.24	876.8
313.15 K	1969.25	863.6

ClC(Cl)(Cl)Br [bromotrichloromethane] + ClCBr
[1], x1 = 1
Conditions	mass density [kg/m3]	speed of sound [m/s]
293.15 K	2013.06	917.1
298.15 K	2002.14	903.6
303.15 K	1991.2	890.2
308.15 K	1980.24	876.8
313.15 K	1969.25	863.6

BrCBr [dibromomethane]
[2]
Conditions	mass density [kg/m3]	speed of sound [m/s]
293.15 K	2491.67	961.8
298.15 K	2478.61	949.2
303.15 K	2465.53	936.6
308.15 K	2452.42	924
313.15 K	2439.26	911.4

BrCBr [dibromomethane] + ClC(Cl)(Cl)Br
[1], x2 = 0
Conditions	mass density [kg/m3]	speed of sound [m/s]
293.15 K	2491.67	961.8
298.15 K	2478.61	949.2
303.15 K	2465.53	936.6
308.15 K	2452.42	924
313.15 K	2439.26	911.4
